From BindingDB's records for doi:10.1021/acs.jmedchem.6b01088 (Bristol Myers Squibb, 2016) come the findings set out here.

The nature of the assay: Inhibition of LCK in human peripheral T cells assessed as suppression of TCR-dependant cell proliferation.

One may read the IC50 as the concentration at which inhibition is half-maximal.

With `Cc1c(-c2c(F)cc(C(N)=O)c3[nH]c4c(c23)CC[C@H](C(C)(C)O)C4)cccc1-n1c(=O)c2cccc(F)c2n(C)c1=O`, the half-maximal inhibitory concentration (IC50) is 3.8 µM.
